Earlier results in patent publication US10751291B2, “Nanoparticulate compositions comprising interferon gamma and losartan for immunotherapy” (Yale University, priority 2013, dated 2020).

Settings: oral administration

## CCCCc1nc(Cl)c(CO)n1Cc1ccc(-c2ccccc2-c2nn[nH]n2)cc1 [Losartan]
  oral absorption: well absorbed
